According to patent US20260284150A1, “TOPICAL PROTEIN BASED FORMULATION” (OPTIMUS SALVUS LIMITED, priority 2023, published 2026):

Assays:
[1] = CBD dosage optimisation and cell toxicity assay (WST-1); assay type: cell-based; settings: human; HDF cells, 24 hours incubation, WST-1 reagent, CBD up to 25 μg/mL; read-out: CBD concentrations toxic to human fibroblast cells
Description: The following reagents were purchased from ThermoFisher: Human Fibroblast Expansion Basal Medium, Low Serum Growth Supplement (LSGS), EpiLife™ Medium with 60 μM calcium, Human Keratinocyte Growth Supplement (HKGS), Trypsin-EDTA (0.05%), phenol red. Fetal Bovine Serum (French Origin) was purchased from Scientifix. Human skin cells: Fibroblasts (HDF) and Keratinocyte (HEK) cells were purchased from Sigma Aldrich and ThermoFisher respectively. HDF cells were grown in Fibroblast media supplemented with 1×LSGS, while HEK cells were grown in Keratinocyte media supplemented with 1×HKGS. Both cell lines were kept in an incubator at 37° C., with 5% CO2.
The human skin cells (HDF and HEK) were cultured in respective media and were grown in T25 flasks until ~70-80% confluent. Once confluent, the cells were washed with 1×PBS and split using 0.05% Trypsin-EDTA solution. The cell pellet was collected and split into a fresh T25 flask and T75 flask containing full growth media at a dilution factor of 1:4 and incubated at 37° C., 5% CO2. Cells were >85-92% viable based on Trypan blue exclusion when seeding and passing. […]

[2] = HEDS (2-hydroxyethyl disulphide) enzyme assay, NADPH consumption at A340 nm; assay type: biochemical; settings: coupled with glutathione (GSH) and glutathione reductase (GR); versus buffer control without CLIC
Description: The functional activity of the purified CLIC1, CLIC3 and CLIC4 proteins were analysed using the HEDS assay. The assay measures the ability of the CLIC proteins to reduce the HEDS substrate when coupled with glutathione (GSH) and glutathione reductase (GR) resulting in the consumption of NADPH that is monitored at A340 nm.

| Compound | MCC at 24 h [1] | enzymatic activity: reduction of HEDS substrate, decrease in absorbance at 340 nm (consumption of NADPH) [2] |
| --- | --- | --- |
| C=C(C)[C@@H]1CCC(C)=C[C@H]1c1c(O)cc(CCCCC)cc1O [CBD, cannabidiol] | > 4 µg/mL | – |
| CLIC4: purified recombinant human chloride intracellular channel protein 4, expressed in E. coli, GST tag cleaved | – | significant enzymatic activity |
